Measurements from patent publication US6593352B2, “Substituted anthranilic acids, their use as a medicament or diagnostic, and medicament comprising them, and a pharmaceutical combination preparation containing a sodium/hydrogen exchange (NHE) blocker” (Aventis Pharma Deutschland GmbH, priority 2000, dated 2003).

Assays:
heart form of human NBC1 = target: T1, heart form of human NBC1 (Homo sapiens, UniProt Q9Y6R1); assay: NBC activity measurement (pHi recovery after acid load, BCECF, FLIPR); assay type: cell-based; settings: residual NBC activity at inhibitor concentration of 10 μM; CHO K1 cells transfected with heart form of human NBC1; NHE and NCBE blocked; duplicate determinations
T1 construct: expressed in transfected cells
T1 sequence (Q9Y6R1 1-1079): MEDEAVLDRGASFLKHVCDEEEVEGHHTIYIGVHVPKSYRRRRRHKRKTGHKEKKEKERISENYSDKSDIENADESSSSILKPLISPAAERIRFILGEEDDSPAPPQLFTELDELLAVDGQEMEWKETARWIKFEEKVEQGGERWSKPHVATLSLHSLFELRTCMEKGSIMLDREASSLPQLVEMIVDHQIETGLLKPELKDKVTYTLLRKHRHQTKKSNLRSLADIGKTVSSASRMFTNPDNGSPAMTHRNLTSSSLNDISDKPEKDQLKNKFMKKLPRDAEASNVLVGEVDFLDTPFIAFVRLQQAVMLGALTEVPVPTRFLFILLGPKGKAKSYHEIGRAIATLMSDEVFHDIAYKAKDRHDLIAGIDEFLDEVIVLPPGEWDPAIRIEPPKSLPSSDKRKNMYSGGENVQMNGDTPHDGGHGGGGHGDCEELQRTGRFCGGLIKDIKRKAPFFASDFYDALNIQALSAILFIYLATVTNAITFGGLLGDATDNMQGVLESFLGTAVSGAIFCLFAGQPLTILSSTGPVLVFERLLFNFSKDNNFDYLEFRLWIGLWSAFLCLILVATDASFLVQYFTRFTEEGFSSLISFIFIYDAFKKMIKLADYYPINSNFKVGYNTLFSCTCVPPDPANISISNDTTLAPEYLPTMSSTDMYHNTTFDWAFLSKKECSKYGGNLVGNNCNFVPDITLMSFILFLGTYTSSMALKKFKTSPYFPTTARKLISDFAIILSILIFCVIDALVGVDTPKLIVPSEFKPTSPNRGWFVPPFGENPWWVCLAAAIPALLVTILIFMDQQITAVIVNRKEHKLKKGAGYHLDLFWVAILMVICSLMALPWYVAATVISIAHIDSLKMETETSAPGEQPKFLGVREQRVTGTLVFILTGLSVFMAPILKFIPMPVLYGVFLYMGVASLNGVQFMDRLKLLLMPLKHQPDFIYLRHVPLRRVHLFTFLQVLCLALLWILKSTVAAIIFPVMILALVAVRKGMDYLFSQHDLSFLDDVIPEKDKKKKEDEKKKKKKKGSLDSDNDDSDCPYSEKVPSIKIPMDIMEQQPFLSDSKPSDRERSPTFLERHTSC
Text: Firstly, the heart form of human NBC1 was cloned by RT-PCR. After confirmation of the sequence, the corresponding cDNAs were cloned into the vector pcDNA3.1+, which contains the neo gene as a selection marker for eukaryotic cells. For the amplification of the human heart form of NBC1, human heart mRNA (Clontech, Palo Alto, Calif., USA) was amplified using primers which cover the area in which the heart form differs from the kidney form. The heart form in this case differs only at the 5′ end of the coding sequence. The area coding for the first 41 amino acids of the kidney form is replaced in the heart form by an area coding for 85 amino acids (positions 118-370 from Abukadze et al., J. Biol. Chem. 273,17689-17695 (1998) or positions 45-294 from Choi et al., Am. J. Physiol. Cell Physiol. 276, C576-C584 (1999) replace positions 150-270 from Burnham et al. (see above.), J. Biol. Chem. 272, 19 111-19 114 (1997). The product of the PCR reaction was first cloned into the vector pCR2.1 and, after verification of the sequence, cloned into the cDNA of the kidney form of NBC1 by means of cleavage sites introduced by means of the PCR reaction. The construct obtained was checked for correct incorporation of the human heart NBC1-cDNA by sequencing. The plasmids obtained for the heart form of human NBC1 were transfected by means of the LipofectAmine™ reagent of the company LifeTechnologies (Gaithersburg, Md., USA) into the cell line CHO K1 (ovary cells of the Chinese hamster), which has no measurable NBC activity. After selection for transfected cells by means of growth in G418-containing medium (only cells which have obtained a neo gene by transfection can survive under these conditions), individual cells were isolated and cultured. Using the test described below, cell clones were identified in FLIPR which have a clear NBC activity. The best cell lines were used for the further tests and, to avoid a loss of the transfected sequence, cultured in G418-containing medium under continuous selection pressure.
For the determination of the inhibitory activity of the active compounds on the heart form of human NBC 1, a test was constructed which represents a further development of the assay constructed for the testing of inhibitors of NCBE (Na^+dependent Cl^−/HCO3− exchanger) (EP 0 903 339) based on the acid load method (Sardet et al., Cell 56, 271-280 (1989); Faber et al., Cell. Physiol. Biochem. 6, 39-49 (1996). In this test, the recovery of the intracellular pH (pHi) after prior acidification is determined under conditions in which the NBC is active, the other pHiregulating systems of the CHO cells such as NHE (Na^+/H^+ exchanger) and NCBE (Na^+-dependent Cl^−/HCO3− exchanger) are blocked, however, by specific inhibitors. In this way, it is ensured that the recovery of the intracellular pH observed is based on the activity of NBC1.
The transfected cells were inoculated into 96 well microtiter plates in a density of about 15,000 cells/well in 200 μl of growth medium and incubated overnight at 37° C. in a CO2 incubator. The intracellular pH of the transfected cells was determined using the pH-sensitive fluorescent dye BCECF (Molecular Probes (Eugene, Oreg., USA), the precursor BCECF-AM is employed). The cells were first loaded with BCECF-AM. The growth medium of the cells inoculated on the day before was manually removed, since the fetal calf serum present in the medium could interfere with the BCECF staining. For staining, 100 μl of NH4Cl stain buffer (20 mM NH4Cl, 115 mM NaCl, 1 mM MgSO4, 1 mM CaCl2, 5 mM KCl, 20 mMHEPES, 5 mM glucose; pH adjusted to 7.4 using 1 M NaOH) was added to the cells of each well, which contains 5 μM BCECF-AM. The cells were incubated with the stain solution at 37° C. in a CO2 incubator for 20 minutes. […]

[1] = tested on: isolated beating rat heart; assay: ischemia/reperfusion model (isolated beating rat heart); settings: combination of the NBC blocker with the NHE inhibitor cariporide mesilate

Compound | residual activity [%] at 10 μM (heart form of human NBC1) [%] | cardioprotective action [1]
O=C(O)c1cc(S(=O)(=O)NCc2cccc(Cl)c2)c(Cl)cc1NCCCCc1ccccc1 [Example 10, 4-Chloro-2-phenylbutylamino-5-(3-chlorobenzylsulfamoyl)benzoic Acid] | 75 | 
O=C(O)c1cc(S(=O)(=O)NCc2ccc(F)c(Cl)c2)c(Cl)cc1NCCCCc1ccccc1 [Example 1, 4-Chloro-5-(3-chloro-4-fluorobenzylsulfamoyl)-2-phenylbutylaminobenzoic acid] | 46 | greater than additive cardioprotective action
4-Chloro-5-[(5-methylfuran-2-ylmethyl)sulfamoyl]-2-phenylbutylaminobenzoic acid [Example 15] | 79 | 
O=C(O)c1cc(S(=O)(=O)NCc2cccc(Cl)c2Cl)c(Cl)cc1NCCCCc1ccccc1 [Example 12, 4-Chloro-2-phenylbutylamino-5-(2,3-dichlorobenzylsulfamoyl)benzoic acid] | 37 | 
O=C(O)c1cc(S(=O)(=O)NCc2ccccn2)c(Cl)cc1NCCCCc1ccccc1 [Example 9, 4-Chloro-2-phenylbutylamino-5-[(pyridin-2-ylmethyl)sulfamoyl]benzoic acid] | 89 | 
O=C(O)c1cc(S(=O)(=O)NCc2ccncc2)c(Cl)cc1NCCCCc1ccccc1 [Example 8, 4-Chloro-2-phenylbutylamino-5-[(pyridin-4-ylmethyl)sulfamoyl]benzoic acid] | 89 | 
NS(=O)(=O)c1ccc(CNS(=O)(=O)c2cc(C(=O)O)c(NCCCCc3ccccc3)cc2Cl)cc1 [Example 11, 4-Chloro-2-phenylbutylamino-5-(4-sulfamoylbenzylsulfamoyl)benzoic acid] | 81 | 
O=C(O)c1cc(S(=O)(=O)NCCc2cccs2)c(Cl)cc1NCCCCc1ccccc1 [Example 17, 4-Chloro-2-phenylbutylamino-5-(2-thiophen-2-ylethylsulfamoyl)benzoic acid] | 95 | 
O=C(O)c1cc(S(=O)(=O)NCc2c(F)cccc2Cl)c(Cl)cc1NCCCCc1ccccc1 [Example 14, 4-Chloro-2-phenylbutylamino-5-(2-chloro-6-fluorobenzylsulfamoyl)benzoic acid] | 87 | 
O=C(O)c1cc(S(=O)(=O)NCc2ccc(Cl)cc2Cl)c(Cl)cc1NCCCCc1ccccc1 [Example 13, 4-Chloro-2-phenylbutylamino-5-(2,4-dichlorobenzylsulfamoyl)benzoic acid] | 60 | 

Now from value to compound, other results behind:

residual activity [%] at 10 μM (heart form of human NBC1) [%] | Compound | cardioprotective action [1]
56 | O=C(O)c1cc(S(=O)(=O)NCc2ccc(F)c(Cl)c2)c(Br)cc1NCCCCc1ccccc1 [Example 2, 4-Bromo-5-(3-chloro-4-fluorobenzylsulfamoyl)-2-phenylbutylaminobenzoic acid] | 
94 | CC(C)CNS(=O)(=O)c1cc(C(=O)O)c(NCCCCc2ccccc2)cc1Cl [Example 21, 4-Chloro-5-(isobutylsulfamoyl)-2-phenylbutylaminobenzoic acid] | 
69 | CCCc1cc(NCCCCc2ccccc2)c(C(=O)O)cc1S(=O)(=O)NCc1ccc(F)c(Cl)c1 [Example 6, 4-n-Propyl-5-(3-chloro-4-fluorobenzylsulfamoyl)-2-phenylbutylaminobenzoic acid] | 
77 | 4-Chloro-5-(phenylbutylsulfamoyl)-2-phenylbutylaminobenzoic Acid [Example 19] | 
79 | CCc1ccc(NS(=O)(=O)c2cc(C(=O)O)c(NCCCCc3ccccc3)cc2Cl)cc1 [Example 18, 4-Chloro-5-(4-ethylphenylsulfamoyl)-2-phenylbutylaminobenzoic acid] | 
54 | Cc1cc(NCCCCc2ccccc2)c(C(=O)O)cc1S(=O)(=O)NCc1ccc(F)c(Cl)c1 [Example 4, 4-Methyl-5-(3-chloro-4-fluorobenzylsulfamoyl)-2-phenylbutylaminobenzoic acid] | 
89 | 4-Chloro-5-(cyclohexylmethylsulfamoyl)-2-phenylbutylaminobenzoic acid [Example 20] | 
78 | CC(C)c1cc(NCCCCc2ccccc2)c(C(=O)O)cc1S(=O)(=O)NCc1ccc(F)c(Cl)c1 [Example 5, 4-isopropyl-5-(3-chloro-4-fluorobenzylsulfamoyl)-2-phenylbutylaminobenzoic acid] | 
95 | 4-(4-Methylphenyl)-5-(3-chloro-4-fluorobenzylsulfamoyl)-2-phenylbutylaminobenzoic acid [Example 7] | 
91 | O=C(O)c1cc(S(=O)(=O)NCCc2ccc(Cl)cc2)c(Cl)cc1NCCCCc1ccccc1 [Example 16, 4-Chloro-5-[2-(4-chlorophenyl)ethylsulfamoyl]-2-phenylbutylaminobenzoic acid] | 
88 | O=C(O)c1cc(S(=O)(=O)NCc2ccc(F)c(Cl)c2)ccc1NCCCCc1ccccc1 [Example 3, 5-(3-Chloro-4-fluorobenzylsulfamoyl)-2-phenylbutylaminobenzoic acid] | 
